Assay results reported in patent US8772509B2, “Indole compounds as positive allosteric modulators of the muscarinic receptor” (Vanderbilt University, priority 2010, dated 2014).

Molecular target: T1, mAChR M1 (UniProt P08482)
T1 sequence (P08482 1-460): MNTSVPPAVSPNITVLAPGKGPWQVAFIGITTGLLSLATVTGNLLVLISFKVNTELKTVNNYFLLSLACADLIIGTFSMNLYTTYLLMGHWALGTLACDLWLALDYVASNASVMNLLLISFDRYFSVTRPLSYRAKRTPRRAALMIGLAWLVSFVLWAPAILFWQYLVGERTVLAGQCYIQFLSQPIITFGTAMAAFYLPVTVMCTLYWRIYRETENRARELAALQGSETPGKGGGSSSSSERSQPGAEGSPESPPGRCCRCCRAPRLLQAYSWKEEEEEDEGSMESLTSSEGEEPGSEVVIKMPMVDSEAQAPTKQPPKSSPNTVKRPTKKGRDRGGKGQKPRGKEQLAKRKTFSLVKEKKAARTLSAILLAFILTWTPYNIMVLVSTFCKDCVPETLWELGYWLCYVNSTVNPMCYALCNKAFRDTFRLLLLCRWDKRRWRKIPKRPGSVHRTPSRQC
Assay: mAChR M1 cell-based functional assay (calcium mobilization, Fluo-4, FDSS)
Details: positive allosteric modulation of EC20 acetylcholine response, CHO-K1 cells expressing mAChR M1; read-out: Potency (EC50)

**Q.** How did the EC50 turn out when `Cc1cc(NC(=O)CS(=O)(=O)c2cn(Cc3cccc(Br)c3F)c3ccccc23)no1` [compound 62, 2-{1-[(3-bromo-2-fluorophenyl)methyl]-1H-indole-3-sulfonyl}-N-(5-methyl-1,2-oxazol-3-yl)acetamide] was run?
**A.** > 10 µM
